From patent US20210284742A1, “METHODS OF TREATING OR PREVENTING MUCORMYCOSIS” (University of Maryland, Baltimore, priority 2018, published 2021)

Legend:
[1] = system: A549 cells infected with R. delemar; assay: R. delemar-induced A549 cell damage (Pierce LDH assay); assay type: cell-based, human; details: for R. delemar-induced damage of A549 alveolar epithelial cells (LDH assay): pre-treated 1 h, inhibitors present throughout, Inh III 10, AG1478 10 μM, AG825 50 μM, 24 h infection (FIG. 6)
Experimental: Measurement of R. delemar-induced host cell damage. R. delemar-induced A549 cell damage was quantified using the Pierce LDH Assay with slight modifications to the manufacturer's protocol. Briefly, A549 cells were grown in 96-well tissue culture plates for 18-24 hours. […] For controls, host cells will be incubated with DMSO (the solvent used to reconstitute the inhibitor) or 25 μg/ml of mouse IgG antibody in parallel. After 24 hours of incubation at 37° C., 50 μl of the cell culture supernatant was collected from uninfected, infected, and fungi-only control wells and transferred to a 96 well plate to assay for LDH activity. Lysis buffer was added to all infected wells and incubated for 45 min at 37° C. After lysis, 50 μl of cell culture supernatant was transferred to a 96 well plate and used for the LDH Assay Kit per protocol. LDH release was calculated as follows: % Cytotoxicity=[Experimental release−Fungal Cells Spontaneous Control−Host Cells Spontaneous Control]/[Host Cell Maximum Control−Fungal Cells Maximum Control−Host Cells Spontaneous Control]×100. LDH is a cytosolic enzyme but will be released into the cell culture medium upon cell membrane damage. The amount of extracellular LDH is proportional to the amount of cell damage.
(§1) R. delemar-induced A549 cell damage was quantified using the Pierce LDH assay, with slight modifications to the manufacturer's protocol. Briefly, A549 cells were grown in 96-well tissue culture plates for 18 to 24 h. Cells were then pretreated for 1 h with inhibitor and infected with 1×10^6-2×10^6 germlings suspended in 150 μl F-12K plus 10% FBS. For controls, host cells were incubated with the appropriate amount of diluent used to reconstitute the in parallel. After 24 h of incubation at 37° C., 50 μl of the cell culture supernatant was collected from uninfected, infected, and fungus-only control wells and transferred to a 96-well plate to assay for LDH activity. Lysis buffer was added to all infected wells, and the mixture was incubated for 45 min at 37° C. After lysis, 50 μl of cell culture supernatant was transferred to a 96-well plate and used for the LDH assay kit per the protocol. LDH release was calculated as follows: % cytotoxicity=[(experimental release−fungal cell spontaneous control−host cell spontaneous control)/(host cell maximum control−fungal cell maximum control−host cell spontaneous control)]×100. LDH is a cytosolic enzyme but will be released into the cell culture medium upon cell membrane damage. The amount of extracellular LDH is proportional to the amount of cell damage.

[2] = system: HUVECs infected with R. delemar; details: inhibition of PDGFR phosphorylation; cited from earlier work
R. delemar = assay: Neutropenic mouse model of pulmonary mucormycosis, survival; assay type: in vivo, mice
Experimental: Murine models of Mucormycosis. Male ICR mice (20-25 g from Envigo) were immunosuppresed by cyclophosphamide (200 mg/kg administered intraperotenually [i.p]) and cortisone acetate (500 mg/kg, adminstered subcutaneously) given on days −2, +3, and +9 relative to infection. […] To control for bacterial infection, immunosuppressed mice received 50 mg/L Baytrial (enrofloxacin: Bayer, Leverkusen, Germany) ad libitum on Day −3 thorough Day 0, after which Baytril was replaced with daily ceftazidime (5 mg/mouse) treatment adminstered subcutaneously through day+13 days post infection. Mice were infected with 2.5×10^5 spores of R. delemar 99-880 in 25 μL PBS given intratracheally as previously described (Luo G, Gebremariam T, Lee H, French S W, Wiederhold N P, Patterson T F, Filler S G, Ibrahim A S. 2013. Efficacy of liposomal amphotericin B and posaconazole in intratracheal models of murine mucormycosis. Antimicrobial agents and chemotherapy 57:3340-7). […] Placebo mice received DMA:PEG300. Survival of mice served as the primary endpoint with moribund mice humanely euthanized. To determine effect of treatment on tissue fungal burden mice were immunosuppressed and infected as above. Gefitinib treatment started 4 post infection and continued through Day +3. On Day +4, mice were sacrificed and lungs and brains, representing primary and secondary target organs (Luo G, Gebremariam T, Lee H, French S W, Wiederhold N P, Patterson T F, Filler S G, Ibrahim A S. 2013. Efficacy of liposomal amphotericin B and posaconazole in intratracheal models of murine mucormycosis. Antimicrobial agents and chemotherapy 57:3340-7), were collected and processed for tissue fungal burden by qPCR (Ibrahim A S, Bowman J C, Avanessian V, Brown K, Spellberg B, Edwards J E, Jr., Douglas C M. 2005. Caspofungin inhibits Rhizopus oryzae 1,3-beta-D-glucan synthase, lowers burden in brain measured by quantitative PCR, and improves survival at a low but not a high dose during murine disseminated zygomycosis. Antimicrobial agents and chemotherapy 49:721-7.) Values are expressed as Log10 spore equivalents per gram tissue.
Statistical Analyses. In vitro experiments were performed in triplicate on two or three separate days. Data were expressed as median±interquartile range. Treatment groups were compared to controls using the Wilcoxon rank-sum test and P values <0.05 were considered significant. For the murine studies, survival of mice was analyzed using the Log Rank test, whereas differences in tissue fungal burden were analyzed by the Wilcoxon Rank Sum test using Graph pad Prism 6. P values of <0.05 were considered significant.

[3] = system: A549 cells infected with M. circinelloides; assay: M. circinelloides-induced damage of A549 cells (LDH assay); assay type: cell-based, human; details: 25 μM Mifepristone overnight and/or 25 μM Gefitinib 1 h, 24 h infection (FIG. 14)
[4] = system: A549 alveolar epithelial cells infected with R. delemar spores; assay: Measurement of host cell endocytosis of R. delemar by A549 cells (Uvitex differential fluorescence); assay type: cell-based, human; details: for ability of A549 cells to endocytose R. delemar spores: Ahr inhibitor or Src inhibitor
Experimental: Measurement of host cell endocytosis. 12-mm glass coverslips were seeded with A549 alveolar epithelial cells. […] For controls, host cells will be incubated with DMSO (the solvent used to reconstitute the inhibitor) or 25 μg/ml mouse IgG antibody in parallel. Host cells were then infected with 2×10^5 R. delemar spores. After incubation for 3 h, cells were fixed in 3% paraformaldehyde and stained for 1 h with 1% Uvitex, which specifically binds to chitin in the fungal cell wall. After washing with PBS, coverslips were mounted on a glass slide with a drop of ProLong Gold anti-fade reagent (Molecular Probes) and sealed. The total number of cell-associated organisms (i.e. fungi adhering to the monolayer) per high-powered field were determined by phase-contrast microscopy. The same field will be examined by epifluorescence microscopy, and the number of brightly fluorescent, uninternalized fungi were determined. The number of endocytosed organisms was calculated by subtracting the number of fluorescent fungi from the total number of visible fungi. At least 400 organisms were counted per treatment group in at least 15 different fields per coverslip. Experiments were performed in duplicate or triplicate on at least two separate days.
12-mm glass coverslips in 12 well dishes will be seeded with A549 alveolar epithelial cells. Cells were then pre-treated 1 h with inhibitors. For controls, host cells were incubated with the appropriate amount of diluent used to reconstitute the inhibitor in parallel. Host cells were then infected with 2×10^6 Rdelemar. After incubation for 3 h, cells were fixed in 3% paraformaldehyde and stained for 1 h with 1% Uvitex, which specifically binds to chitin in the fungal cell wall. After washing with PBS, coverslips were mounted on a glass slide with a drop of ProLong Gold anti-fade reagent (Molecular Probes) and sealed. The total number of cell-associated organisms (i.e., fungi adhering to the monolayer) per high-powered field was determined by phase-contrast microscopy. The same exact field was examined by epifluorescence microscopy, and the number of brightly fluorescent, uninternalized fungi will be determined. The number of endocytosed organisms is calculated by subtracting the number of fluorescent organisms from the total number of visible organisms. At least 400 organisms were counted in at least 15 different fields per coverslip. Experiments were performed in duplicate on separate days. Data will be expressed as median f interquartile range.

[5] = system: A549 cells infected with L. corymbifera; assay: L. corymbifera-induced damage of A549 cells (LDH assay); assay type: cell-based, human; details: 25 μM Mifepristone overnight and/or 25 μM Gefitinib 1 h, 24 h infection (FIG. 14)
[6] = system: A549 cells infected with R. oryzae; assay: R. oryzae-induced damage of A549 cells (LDH assay); assay type: cell-based, human; details: 25 μM Mifepristone overnight and/or 25 μM Gefitinib 1 h, 24 h infection (FIG. 14)
Experimental: as §1, with “Cells were then pretreated for 1 h with inhibitor and infected with 1×10^6-2×10^6 germlings suspended in 150 μl F-12K plus 10% FBS.” left out

[7] = system: A549 cells infected with C. bertholletiae; assay: C. bertholletiae-induced damage of A549 cells (LDH assay); assay type: cell-based, human; details: 25 μM Mifepristone overnight and/or 25 μM Gefitinib 1 h, 24 h infection (FIG. 14)

COc1cc(/C=C(\C#N)C(N)=O)cc(CSc2nc3ccccc3s2)c1O [AG825]
R. delemar-induced damage of A549 alveolar epithelial cells (LDH assay) [1]: greater reduction in damage

COc1cc2ncnc(N3CCN(C(=O)Nc4ccc(Oc5ccccc5)cc4)CC3)c2cc1OC [PDGFR tyrosine kinase inhibitor III]
R. delemar-induced damage of A549 alveolar epithelial cells (LDH assay) [1]: modestly but significantly reduces | R. delemar-induced damage of HUVECs [2]: significantly reduces

CC[C@@H]([C@H](C)O)n1ncn(-c2ccc(N3CCN(c4ccc(OC[C@@H]5CO[C@@](Cn6cncn6)(c6ccc(F)cc6F)C5)cc4)CC3)cc2)c1=O [posaconazole]
18-day survival (R. delemar; delayed treatment beginning 30 h post infection for 6 consecutive days, 10 mg/kg gefitinib, 20 mg/kg posaconazole or both): 0% | protection from pulmonary mucormycosis, delayed administration (R. delemar; treatment delayed for 30 h post infection, administered alone): did not

COc1cc2ncnc(Nc3cccc(Cl)c3)c2cc1OC [AG1478]
R. delemar-induced damage of A549 alveolar epithelial cells (LDH assay) [1]: greater reduction in damage

CC#C[C@]1(O)CC[C@H]2[C@@H]3CCC4=CC(=O)CCC4=C3[C@@H](c3ccc(N(C)C)cc3)C[C@@]21C [Mifepristone]
M. circinelloides-induced damage [3]: a significant decrease in damage was not seen | R. delemar-induced damage of alveolar epithelial cells (LDH assay) ([1]; Example 3, Mifepristone 25 / Gefitinib 25, 24 h infection, vs vehicle (FIG. 12)): decrease | R. delemar invasion / endocytosis ([4]; Example 3, 25 μM Mifepristone overnight and/or 25 μM Gefitinib 1 h, 3 h infection (FIG. 13)): reduction | L. corymbifera-induced damage [5]: significantly decreased | R. oryzae-induced damage [6]: a significant decrease in damage was not seen | C. bertholletiae-induced damage [7]: a significant decrease in damage was not seen

Src Kinase Inhibitor I I
ability of A549 cells to endocytose R. delemar spores [4]: Neither of the inhibitors altered

EGF [epidermal growth factor, EGFR ligand]
R. delemar-induced damage with EGF addition (LDH assay) ([1]; A549 cells pretreated (and cotreated) with EGF 1 h prior to 24 h infection (FIG. 15)): no increase in damage was observed

Cc1ccccc1N=Nc1ccc(NC(=O)c2ccnn2C)c(C)c1 [CH-223191]
ability of A549 cells to endocytose R. delemar spores [4]: Neither of the inhibitors altered
